# Experimental data taken from patent US10227369B2, “Short-chain fatty acid hexosamine analogs and their use in tissue engineering applications” (THE JOHNS HOPKINS UNIVERSITY, priority 2013, dated 2019).
# Entries after “also recorded” stand apart in the source; their conditions may differ.
# Tests used:
# Assay type in all cases: cell-based, bovine
# [1] = system: IL-1β-stimulated chondrocytes; assay: IL-1β-stimulated chondrocytes in 3D PEGDA hydrogels: biochemical analysis (DNA, sGAG, collagen), histology, immunohistochemistry; details: 10 ng/ml IL-1β; for DNA content of cell-laden hydrogels (cell viability): 21 days exposure, up to 150 μM
# Description: (§1) Cell Isolation and Culturing. Bovine chondrocytes were isolated from 4- to 8-week-old calves (Research 87, Inc., Boylston, Mass.), as previously described. Briefly, cartilage was dissected from the femoral patellar groove and condyles and minced into approximately 1 mm^2 pieces. Cells were isolated from the tissue by digesting overnight at 37° C. with 2 mg/ml type II collagenase (Worthington Biochemical Corp., Lakewood, N.J.), 5% fetal bovine serum (FBS), 100 U/ml penicillin and 100 μg/ml streptomycin on an orbital shaker. The cell suspension was passed through a 70 μm cell strainer, followed by centrifugation. Cells were washed 3 times using sterile phosphate buffered saline (PBS). Chondrocyte medium was composed of high glucose Dulbecco's Modified Eagle's Medium (DMEM) supplemented with 10 mM HEPES, 0.4 mM L-proline, 50 μg/ml ascorbic acid, 10% (v/v) fetal bovine serum (FBS; Hyclone Laboratories, Inc., Logan, Utah), 0.1 mM non-essential amino acids, 100 U/ml penicillin and 100 μg/ml streptomycin.
# (§2) Photoencapsulation in Poly(Ethylene Glycol)-Diacrylate (PEGDA) Hydrogels and Construct Culturing. For all 3D culture experiments, cells were photoencapsulated in PEGDA hydrogels, as previously described. Briefly, 100 mg PEGDA (3.4 kDa, SunBio, Anyang City, South Korea) was dissolved in 1 ml sterile PBS. A photoinitiator solution of Irgacure® 2959 (CIBA Specialty Chemicals) was prepared by dissolving 100 mg of Irgacure® 2959 in 1 ml 70% ethanol. Five microliters of the Irgacure® 2959 solution was added to 1 ml of PEGDA solution. Cells were suspended in the hydrogel precursor solution at a density of 20 million cells/ml and polymerized in sterile molds. A high cell density was chosen as it has been shown. Based on our previous studies a high cell density was chosen to best to support a cell phenotype and differentiation and cell phenotype. Polymerization was carried out using UV light (365 nm, 3.2 mW/cm^2) exposure for 5 minutes.
# (§3) For chondrocyte experiments, the cell-laden hydrogels were cultured in chondrocyte medium supplemented with 10 ng/ml IL-1β for 3 days. Following the initial 3 days, constructs were cultured with medium containing specific concentrations of hexosamine analog with 10 ng/ml IL-1β for an additional 21 days. The medium was changed 3 times per week.
# (§4) Biochemical Analysis. The constructs (n=3 for chondrocyte experiments and n=4 for chondrogenic experiments) were lyophilized for 48 hours and the dry weights measured. Constructs were then homogenized in 125 μg/ml papainase (Worthington Biochemical Corp., Lakewood, N.J.) and digested for 16 hours at 60° C. Quantification of DNA content was carried out using a Hoescht Dye 33342 DNA assay. Calf thymus DNA was used to generate standard curves. Quantification of sulfated glycosaminoglycans (sGAG), a molecule found in cartilage ECM, was carried out using a 1,9-dimethylmethylene blue (DMMB) dye assay; chondroitin sulfate was used to generate standard curves. Quantification of collagen was carried out via measuring hydroxyproline content after hydrolyzing in 6 N HCl overnight at 120° C. The reaction of hydroxyproline with chloramine-T and p-dimethylaminobenzaldehyde was performed as a measure of total collagen content; hydroxyproline was used to generate standard curves.
# Histology and Immunohistochemistry. Constructs were fixed in 10% formalin or 4% paraformaldehyde followed by dehydration in increasing concentrations of ethanol, embedded in paraffin and sliced into 5 μm sections. After paraffin removal and subsequent rehydration, sections were stained for proteoglycans using Safranin-O and fast green or prepared for immunohistochemistry. For immunohistochemical staining of type II collagen, endogenous peroxidase was quenched using 3% (v/v) hydrogen peroxide in methanol. Sections were then incubated at 37° C. with 2.5% (w/v) hyaluronidase and stained using a Histostain-SP Kit (AEC, Broad Spectrum) (Life Technologies, Grand Island, N.Y.) following the manufacturer's instructions. […]
# [2] = system: unstimulated chondrocytes; assay: Unstimulated (no IL-1β) chondrocytes in 3D PEGDA hydrogels: biochemical analysis and histology; details: for DNA content of cell-laden hydrogels (cell viability): 21 days exposure; for sGAG deposition / total collagen accumulation / type II collagen immunostaining: 21 days
# Description: as §1, §2, §4
# Histology and Immunohistochemistry. Constructs were fixed in 10% formalin or 4% paraformaldehyde followed by dehydration in increasing concentrations of ethanol, embedded in paraffin and sliced into 5 μm sections. After paraffin removal and subsequent rehydration, sections were stained for proteoglycans using Safranin-O and fast green or prepared for immunohistochemistry. For immunohistochemical staining of type II collagen, endogenous peroxidase was quenched using 3% (v/v) hydrogen peroxide in methanol. Sections were then incubated at 37° C. with 2.5% (w/v) hyaluronidase and stained using a Histostain-SP Kit (AEC, Broad Spectrum) (Life Technologies, Grand Island, N.Y.) following the manufacturer's instructions. Primary antibody for type II collagen (Fitzgerald Industries International, Acton, Mass.) was used at a dilution of 1:100 in 1% (w/v) BSA dissolved in PBS.
# [3] = system: IL-1β-stimulated chondrocytes; assay: IL-1β-stimulated chondrocytes in 3D PEGDA hydrogels: real-time PCR gene expression; details: 10 ng/ml IL-1β, 21 days
# Description: as §1, §2, §3
# (§5) RNA Isolation and Real-Time PCR. Total RNA was extracted using TRIzol® reagent (Life Technologies, Grand Island, N.Y.) following the manufacturer's protocol. cDNA was synthesized using Superscript® II reverse transcriptase (Life Technologies, Grand Island, N.Y.) following the manufacturer's protocol. Real-time PCR was carried out using a StepOnePlus™ Real-Time PCR System (Life Technologies, Grand Island, N.Y.). mRNA amounts for bovine primers were calculated using the ΔΔCt method. Relative mRNA quantities for goat primers were calculated using the Pfaffl method.
# [4] = system: IL-1β stimulated chondrocytes; assay: Monolayer chondrocytes with IL-1β: real-time PCR of NFκB target genes; details: 50 μM, 10 ng/ml IL-1β
# Description: as §1
# Monolayer cell culture. […]
# RNA Isolation and Real-Time PCR. […] Real-time PCR was carried out using a StepOnePlus™ Real-Time PCR System (Life Technologies, Grand Island, N.Y.). mRNA amounts for bovine primers were calculated using the ΔΔCt method. Relative mRNA quantities for goat primers were calculated using the Pfaffl method.
# [5] = system: unstimulated chondrocytes; assay: Unstimulated (no IL-1β) chondrocytes in 3D PEGDA hydrogels: real-time PCR gene expression; details: 21 days
# Description: as §1, §2, §5
# [6] = across the concentrations evaluated
# [7] = concentrations similar to increased ECM accumulation
smiles,measurement,setting,value
"CCCC(=O)OC[C@H]1OC(O)[C@@H](NC(C)=O)[C@@H](OC(=O)CCC)[C@@H]1OC(=O)CCC (some centres unmarked) [ManNAc-a, 3,4,6-O-Bu3ManNAc]",proteoglycan deposition (Safranin-O staining),"[1]; 21 days, at 150 μM",further increase
same,sGAG accumulation normalized to DNA,"[1]; 21 days, at 150 μM",further increase
"CCCC(=O)OC1OC(CO)[C@@H](OC(=O)CCC)[C@H](OC(=O)CCC)C1NC(C)=O (some centres unmarked) [1,3,4-O-Bu3GlcNAc, reference compound]",DNA content of cell-laden hydrogels (cell viability),[1],no statistical differences
same,sGAG accumulation normalized to DNA,"[1]; 21 days, across the concentrations evaluated",did not alter; also recorded: no statistical differences
same,total collagen deposition normalized to DNA,[1]; [6],did not alter; also recorded: no statistical differences
same,DNA content of cell-laden hydrogels (cell viability),[2],no statistical differences
same,sGAG deposition normalized to DNA,[2]; [6],did not alter; also recorded: no statistical differences
same,total collagen deposition normalized to DNA,[2]; [6],did not alter; also recorded: no statistical differences
"CCCC(=O)OC[C@H]1OC(O)[C@H](NC(C)=O)[C@@H](OC(=O)CCC)[C@@H]1OC(=O)CCC (some centres unmarked) [GlcNAc-a, 3,4,6-O-Bu3GlcNAc]",lowest concentration at which an increase in Safranin-O and type II collagen stains is observed,[1]; 21 days,25 µM
same,DNA content of cell-laden hydrogels (cell viability),[1],did not elicit a statistically significant difference
same,"type II collagen immunostaining, stain intensity versus no analog","[1]; 21 days, 25 μM and 150 μM",slight increase in stain intensity
same,change in sGAG deposition compared to no exposure,"[1]; 21 days, 50 μM",almost doubling
same,increase in collagen accumulation compared to no exposure,"[1]; 21 days, 50 μM and 100 μM",almost doubling
same,total collagen accumulation normalized to DNA,"[1]; 21 days, 50 μM and 100 μM",significant increase
same,type II collagen immunostaining,"[1]; 21 days, 50 μM and 100 μM",increase in type II collagen immunostaining
same,sGAG accumulation normalized to DNA,"[1]; 21 days, at 150 μM",decreased
same,sGAG accumulation normalized to DNA,"[1]; 21 days, concentrations up to 100 μM, versus no analog",increase in sGAG accumulation
same,IκBα gene expression,[3],decreased
same,"MMP13, NFκB1 and IκBα expression levels relative to unstimulated chondrocytes",[3],near to that of unstimulated
same,NFKB1 gene expression,[3],decreased
same,"aggrecan, type II collagen and type I collagen expression relative to unstimulated chondrocytes",[3],approached expression levels found in unstimulated chondrocytes
same,MMP13 gene expression,[3]; 150 μM,further decrease
same,aggrecan gene expression,[3]; [7],increased
same,type II collagen gene expression,[3]; [7],increased
same,MMP13 gene expression,[3]; higher concentrations (through 100 μM),decrease
same,type I collagen gene expression,[3]; intermediate concentrations,increased
same,MMP13 gene expression,[3]; low concentrations / lowest dose,initial increase
same,"expression levels of IL-1β, IκBα and iNOS",[4]; 4 hours exposure,able to alter expression levels of some of the genes
same,"expression levels of NFκB target genes (IL-1β, MMP13, ADAMTS4, ADAMTS5, iNOS, PGES, NFκB1, IκBα)","[4]; 24 hours exposure, MMP9 is the exception",decreased the expression levels of all genes evaluated
same,DNA content of cell-laden hydrogels (cell viability),[2],did not elicit a statistically significant difference
same,sGAG deposition,[2]; 150 μM,a decrease was observed
same,total collagen accumulation,[2]; above 50 μM,concentration dependent decrease
same,type II collagen immunostaining,[2]; above 50 μM,dose-dependent decrease
same,sGAG deposition,[2]; below 150 μM,did not have an effect
same,total collagen accumulation,[2]; through 50 μM,maintained collagen accumulation
same,type II collagen immunostaining,[2]; through 50 μM,no differences
same,type I collagen gene expression,[5],concentration-dependent decrease
same,MMP13 gene expression,[5]; after lowest dose through 100 μM,decrease
same,IκBα and NFκB1 gene expression,[5]; except the highest concentrations,Neither of these genes changed
same,IκBα and NFκB1 gene expression,[5]; highest concentrations studied,an increase was observed
same,MMP13 gene expression,[5]; lowest dose,initial increase
